Like-named read-outs stand apart in the source and are kept apart here.
Target: P2X7 receptor (Homo sapiens (Human), UniProt Q99572)
Experiment: P2X7 FLIPR assay (BzATP-stimulated calcium fluorescence, antagonist IC50)
Format: cell-based
Outline: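 Cells expressing P2X7 receptor (human, rat or mouse), plated 24 hours earlier in low-serum medium, loaded with Fluo-4 NW dye (30 min 37° C, 30 min room temperature).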

P2X7 receptor, sequence (Q99572 whole entry): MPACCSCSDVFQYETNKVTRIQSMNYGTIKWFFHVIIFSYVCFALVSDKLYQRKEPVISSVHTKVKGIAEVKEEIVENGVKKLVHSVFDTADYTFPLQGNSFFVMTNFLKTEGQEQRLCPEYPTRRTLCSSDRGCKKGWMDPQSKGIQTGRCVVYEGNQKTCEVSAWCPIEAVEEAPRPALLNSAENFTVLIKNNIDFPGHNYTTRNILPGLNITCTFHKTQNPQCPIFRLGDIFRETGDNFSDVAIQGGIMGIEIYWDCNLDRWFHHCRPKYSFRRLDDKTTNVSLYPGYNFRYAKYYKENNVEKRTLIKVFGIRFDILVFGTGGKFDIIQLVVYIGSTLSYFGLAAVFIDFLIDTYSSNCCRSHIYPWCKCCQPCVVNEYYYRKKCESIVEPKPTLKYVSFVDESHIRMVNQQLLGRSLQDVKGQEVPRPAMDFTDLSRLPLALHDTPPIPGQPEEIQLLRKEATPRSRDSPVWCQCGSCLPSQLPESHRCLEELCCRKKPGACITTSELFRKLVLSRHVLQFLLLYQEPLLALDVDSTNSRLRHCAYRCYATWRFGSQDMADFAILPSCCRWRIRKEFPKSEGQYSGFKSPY

Compound	IC50 [nM]	IC50 (listed as (−)N-[3-cyclopropyl-2-[6-(trifluoromethyl)-3-pyridyl]propyl]-2-methoxy-benzamide) [nM]
O=C(NCC(c1ccccc1)c1ccc(C(F)(F)F)nc1)c1c(Cl)cccc1Cl (single isomer, unassigned; (-)) [(−)2,6-dichloro-N-[2-phenyl-2-[6-(trifluoromethyl)-3-pyridyl] [(−)2,6-dichloro-N-[2-phenyl-2-[6-(trifluoromethyl)-3-pyridyl]ethyl]benzamide]	18	
CC(CNC(=O)c1cccc(F)c1Cl)(CC1CC1)c1cnc(C(F)(F)F)nc1 (single isomer, unassigned; (+)) [(+)2-chloro-N-[3-cyclopropyl-2-methyl-2-[2-(trifluoromethyl)] [(+)2-chloro-N-[3-cyclopropyl-2-methyl-2-[2-(trifluoromethyl)pyrimidin-5-yl]propyl]-3-fluoro-benzamide]	360	
O=C(NCC1(c2cccnc2)CCCC1)c1cccc(Cl)c1Cl [2,3-Dichloro-N-(1-pyridin-3-yl-cyclopentylmethyl)-benzamide]	2200	
O=C(NCC(c1cnc(C(F)(F)F)nc1)C1CCC(F)(F)CC1)c1cccc(Cl)c1Cl (single isomer, unassigned; (-)) [(−)2,3-dichloro-N-[2-(4,4-difluorocyclohexyl)-2-[2-(trifluor] [(−)2,3-dichloro-N-[2-(4,4-difluorocyclohexyl)-2-[2-(trifluoromethyl)pyrimidin-5-yl]ethyl]benzamide]	4.3	
Cc1ncc(C(CNC(=O)c2cccc(F)c2Cl)C2CCC(F)(F)CC2)cn1 (stereo not drawn) [2-chloro-N-[2-(4,4-difluorocyclohexyl)-2-(2-methylpyrimidin-5-yl)ethyl]-3-fluoro-benzamide]	83	
O=C(NCC(CC1CC1)c1cnc(C(F)F)nc1)c1cccc(Cl)c1Cl (single isomer, unassigned; (-)) [(−)2,3-dichloro-N-[3-cyclopropyl-2-[2-(difluoromethyl)pyrimi] [(−)2,3-dichloro-N-[3-cyclopropyl-2-[2-(difluoromethyl)pyrimidin-5-yl]propyl]benzamide]	1.9	
Cc1ccc(Cl)c(C(=O)NCC2(c3ccc(C)nc3)CCOCC2)c1 [2-Chloro-5-methyl-N-[4-(6-methyl-pyridin-3-yl)-tetrahydro-pyran-4-ylmethyl]-benzamide]	3400	
O=C(NCC(CC1(C(F)(F)F)CC1)c1ccc(C(F)(F)F)nc1)c1ccccc1Cl (single isomer, unassigned; (+)) [(+)2-chloro-N-[3-[1-(trifluoromethyl)cyclopropyl]-2-[6-(trif] [(+)2-chloro-N-[3-[1-(trifluoromethyl)cyclopropyl]-2-[6-(trifluoromethyl)-3-pyridyl]propyl]benzamide]	0.09	
Cc1ncc(C(CNC(=O)c2cccc(Cl)c2Cl)CC2(C(F)(F)F)CC2)cn1 (stereo not drawn) [2,3-dichloro-N-[2-(2-methylpyrimidin-5-yl)-3-[1-(trifluorome] [2,3-dichloro-N-[2-(2-methylpyrimidin-5-yl)-3-[1-(trifluoromethyl)cyclopropyl]propyl]benzamide]	7.1	
O=C(NCC(c1cnc(C(F)(F)F)nc1)C1CCC(F)(F)CC1)c1c(F)cccc1Cl (single isomer, unassigned; (+)) [(+)2-chloro-N-[2-(4,4-difluorocyclohexyl)-2-[2-(trfluorometh] [(+)2-chloro-N-[2-(4,4-difluorocyclohexyl)-2-[2-(trfluoromethyl)pyrimidin-5-yl]ethyl]-6-fluoro-benzamide]	75	
O=C(NCC(CC1CC1)c1ccc(C(F)(F)F)nc1)c1c(Cl)cccc1Cl (single isomer, unassigned; (+)) [(+)2,6-dichloro-N-[3-cyclopropyl-2-[6-(trifluoromethyl)-3-py] [(+)2,6-dichloro-N-[3-cyclopropyl-2-[6-(trifluoromethyl)-3-pyridyl]propyl]benzamide]	0.89	
COc1ccc(C2(CNC(=O)c3cccc(Cl)c3Cl)CCC(F)(F)CC2)cn1 [2,3-dichloro-N-((4,4-difluoro-1-(6-methoxypyridin-3-yl)cyclohexyl)methyl)benzamide]	0.96	
COc1ccccc1C(=O)NCC(CC1CC1)c1ccc(C(F)(F)F)nc1 (single isomer, unassigned) [Example 4o, (−)—N-(3-cyclopropyl-2-(6-(trifluoromethyl)pyridin-3-yl)propyl)-2-methoxybenzamide]		53
O=C(NCC1(c2ccc(F)nc2)CCC(F)(F)CC1)c1ccccc1Cl [2-chloro-N-((4,4-difluoro-1-(6-fluoropyridin-3-yl)cyclohexyl)methyl)benzamide]	25	
Cc1ccc(Cl)c(C(=O)NCC2(c3ccc(F)nc3)CCC(F)(F)CC2)c1 [2-chloro-N-[[4,4-difluoro-1-(6-fluoro-3-pyridyl)cyclohexyl]methyl]-5-methyl-benzamide]	0.76	
O=C(NCC1(c2ccc(C(F)(F)F)nc2)CCC(F)(F)CC1)c1cccc(F)c1Cl [2-chloro-N-((4,4-difluoro-1-(6-(trifluoromethyl)pyridin-3-yl)cyclohexyl)methyl)-3-fluorobenzamide]	1.4	
O=C(NCC(CC1CC1)c1cnc(C(F)(F)F)nc1)c1ccccc1Cl (single isomer, unassigned; (+)) [(+)2-chloro-N-[3-cyclopropyl-2-[2-(trifluoromethyl)pyrimidin] [(+)2-chloro-N-[3-cyclopropyl-2-[2-(trifluoromethyl)pyrimidin-5-yl]propyl]benzamide]	38	
O=C(NCC(CC1(C(F)(F)F)CC1)c1ccc(C(F)(F)F)nc1)c1cccc(Cl)c1Cl (single isomer, unassigned; (+)) [(+)2,3-dichloro-N-[3-[1-(trifluoromethyl)cyclopropyl]-2-[6-(] [(+)2,3-dichloro-N-[3-[1-(trifluoromethyl)cyclopropyl]-2-[6-(trifluoromethyl)-3-pyridyl]propyl]benzamide]	12	
O=C(NC[C@H](c1cnc(C(F)(F)F)nc1)C1CCOCC1)c1cccc(Cl)c1Cl (single isomer, unassigned) [(+)2,3-dichloro-N-[2-tetrahydropyran-4-yl-2-[2-trifluoromethyl)pyrimidin-5-yl]ethyl]benzamide]	4.1	
O=C(NCC(c1ccc(F)cc1)c1cnc(C(F)(F)F)nc1)c1cccc(Cl)c1Cl (single isomer, unassigned; (+)) [(+)2,3-dichloro-N-[2-(4-fluorophenyl)-2-[2-(trifluoromethyl)] [(+)2,3-dichloro-N-[2-(4-fluorophenyl)-2-[2-(trifluoromethyl)pyrimidin-5-yl]ethyl]benzamide]	1.1	
Cc1ccc(F)cc1C(=O)NCC1(c2ccc(C(F)(F)F)nc2)CCC(F)(F)CC1 [N-((4,4-difluoro-1-(6-(trifluoromethyl)pyridin-3-yl)cyclohexyl)methyl)-5-fluoro-2-methylbenzamide]	9.1	
CC(CNC(=O)c1cccc(Cl)c1Cl)(CC1CC1)c1cnc(C(F)(F)F)nc1 (single isomer, unassigned; (+)) [(+)2,3-dichloro-N-[3-cyclopropyl-2-methyl-2-[2-(trifluoromethyl)pyrimidin-5-yl]propyl]benzamide]	74	
COc1cccc(C(=O)NCC2(c3ccc(F)nc3)CCC(F)(F)CC2)c1F	100	
O=C(NCC1(c2ccc(C(F)(F)F)nc2)CCC(F)(F)CC1)c1cccc(Cl)c1Cl [2,3-dichloro-N-((4,4-difluoro-1-(6-(trifluoromethyl)pyridin-3-yl)cyclohexyl)methyl)benzamide]	1.2	

Source: patent US9102591B2, “Benzamides” (H. Lundbeck A/S, priority 2012, dated 2015)
